The values below come from ChEMBL document CHEMBL1144521, “Design, synthesis and biological activity of selective and orally available TF/FVIIa complex inhibitors containing non-amidine P1 ligands” (Bioorg Med Chem, 2007).

The target in one data set is T1, Coagulation factor VII (Homo sapiens, UniProt P08709).
T1 sequence (P08709 whole entry): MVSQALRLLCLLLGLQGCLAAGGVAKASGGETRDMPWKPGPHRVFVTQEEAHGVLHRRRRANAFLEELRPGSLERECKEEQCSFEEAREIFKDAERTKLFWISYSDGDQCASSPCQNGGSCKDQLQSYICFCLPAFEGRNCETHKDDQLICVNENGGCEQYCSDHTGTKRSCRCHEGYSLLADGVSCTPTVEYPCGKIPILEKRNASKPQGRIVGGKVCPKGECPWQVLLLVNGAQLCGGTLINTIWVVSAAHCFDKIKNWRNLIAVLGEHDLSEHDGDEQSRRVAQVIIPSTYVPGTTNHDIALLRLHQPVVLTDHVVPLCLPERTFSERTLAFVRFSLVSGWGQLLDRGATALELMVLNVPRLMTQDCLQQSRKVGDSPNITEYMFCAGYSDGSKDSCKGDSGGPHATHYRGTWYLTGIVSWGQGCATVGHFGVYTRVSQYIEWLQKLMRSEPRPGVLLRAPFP
The data set can be described thus: Inhibition of human TF/FVIIa complex by chromogenic assay.

For another data set, the target named is Coagulation factor X (Homo sapiens, UniProt P00742). The experiment in a line: Inhibition of human Fxa by chromogenic assay.
Data set [1] deals with Plasma. The data set can be described thus: Anticoagulant potency in human citreated plasma assessed as concentration required to double activated partial thromboplastin time. Type of data set: functional.
The subject of data set [2] is Plasma. The experiment in a line: Anticoagulant potency in human citreated plasma assessed as concentration required to double prothrombin time. In kind it is functional.
The target in the next data set is Trypsin (Homo sapiens, UniProt P07477+P07478+P35030). The experiment in a line: Inhibition of human trypsin by chromogenic assay. Type of data set: protein assay.
The next data set concerns the target Prothrombin (Homo sapiens, UniProt P00734). The data set can be described thus: Inhibition of human thrombin by chromogenic assay.
Data set [3] is described as follows: Plasma concentration in ICR mouse at 100 mg/kg, po after 0.5 hrs by TF/FVIIa inhibition assay. Type of data set: ADME, organism-based. Further details: dose 100 mg/kg, route oral.
A short description of data set [4]: Plasma concentration in ICR mouse at 100 mg/kg, po after 2 hrs by TF/FVIIa inhibition assay. In kind it is ADME, organism-based. Further details: dose 100 mg/kg, route oral.
Data set [5] has as its system Cynomolgus monkey. The experiment in a line: Effect on bleeding time in cynomolgus monkey at 30 mg/kg, iv. In kind it is functional, Macaca fascicularis.
Data set [6] has as its system Cynomolgus monkey. The data set can be described thus: Effect on activated partial thromboplastin time in cynomolgus monkey citreated blood at 3 mg/kg, iv. In kind it is functional, Macaca fascicularis.
Data set [7] deals with Cynomolgus monkey. The experiment in a line: Effect on bleeding time in cynomolgus monkey at 10 mg/kg, iv. Type of data set: functional, Macaca fascicularis.
The subject of data set [8] is Cynomolgus monkey. The experiment in a line: Effect on activated partial thromboplastin time in cynomolgus monkey citreated blood at 30 mg/kg, iv. Type of data set: functional, Macaca fascicularis.
Data set [9] concerns Cynomolgus monkey. The experiment in a line: Prolongation of prothrombin time in cynomolgus monkey citreated blood at 30 mg/kg, iv. In kind it is functional, Macaca fascicularis.
Data set [10] concerns Cynomolgus monkey. The data set can be described thus: Effect on activated partial thromboplastin time in cynomolgus monkey citreated blood at 10 mg/kg, iv. In kind it is functional, Macaca fascicularis.
A short description of data set [11]: Plasma concentration in ICR mouse at 100 mg/kg, po after 4 hrs by TF/FVIIa inhibition assay. Further details: dose 100 mg/kg, route oral. In kind it is ADME, organism-based.
The test system of data set [12] is Cynomolgus monkey. The data set can be described thus: Effect on bleeding time in cynomolgus monkey at 3 mg/kg, iv. In kind it is functional, Macaca fascicularis.
For data set [13], the system named is Cynomolgus monkey. The data set can be described thus: Prolongation of prothrombin time in cynomolgus monkey citreated blood at 10 mg/kg, iv. In kind it is functional, Macaca fascicularis.
Data set [14] has as its system Cynomolgus monkey. The data set can be described thus: Prolongation of prothrombin time in cynomolgus monkey citreated blood at 3 mg/kg, iv. In kind it is functional, Macaca fascicularis.
The nature of data set [15]: Plasma concentration in ICR mouse at 300 mg/kg, po after 0.5 hrs by TF/FVIIa inhibition assay. Type of data set: ADME, organism-based. Further details: dose 300 mg/kg, route oral.
The nature of data set [16]: Plasma concentration in ICR mouse at 300 mg/kg, po after 2 hrs by TF/FVIIa inhibition assay. In kind it is ADME, organism-based. Further details: dose 300 mg/kg, route oral.

The IC50 is the concentration needed to halve the response being measured.

Chain of Coagulation factor X (P00742 41-179 limits assumed): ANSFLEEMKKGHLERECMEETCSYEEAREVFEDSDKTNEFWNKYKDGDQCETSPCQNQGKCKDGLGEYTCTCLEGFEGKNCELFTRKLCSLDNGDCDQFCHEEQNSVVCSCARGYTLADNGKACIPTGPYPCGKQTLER
Chain of Coagulation factor X (P00742 235-488 limits assumed): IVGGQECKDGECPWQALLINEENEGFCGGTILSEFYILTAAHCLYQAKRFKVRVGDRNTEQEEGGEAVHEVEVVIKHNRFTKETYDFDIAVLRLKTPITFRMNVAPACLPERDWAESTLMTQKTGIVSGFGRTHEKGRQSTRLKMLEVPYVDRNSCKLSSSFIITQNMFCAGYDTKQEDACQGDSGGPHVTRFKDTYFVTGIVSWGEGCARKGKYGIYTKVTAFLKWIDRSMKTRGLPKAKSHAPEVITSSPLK

For `CC(C)CNC(=O)c1ccc(-c2ccccc2C(=O)Nc2cccc(C(N)=O)c2)c(C(=O)O)c1`, the IC50 on Coagulation factor VII was 19 µM.

Molecule `CC(C)C[C@H](NC(=O)c1ccc(-c2ccc(NC3CCCCC3)cc2C(=O)Nc2cccc(C(N)=O)c2)c(C(=O)O)c1)C(N)=O` yielded a half-inhibitory concentration (IC50) on Coagulation factor VII of 91 µM.

In the case of `CC(C)C[C@H](CO)NC(=O)c1ccc(-c2ccccc2C(=O)Nc2cccc(C(N)=O)c2)c(C(=O)O)c1`, at Coagulation factor VII, inhibition was half-maximal at 191 µM (IC50).

The molecule `CC(C)C[C@H](NC(=O)c1ccc(-c2ccccc2C(=O)Nc2cccc(C(N)=O)c2)c(C(=O)O)c1)C(N)=O` gave an IC50 at Coagulation factor VII of 4.2 µM.

`CC(C)C[C@H](NC(=O)c1ccc(-c2ccccc2C(=O)Nc2cccc(C(N)=O)c2)c(C(=O)O)c1)C(=O)N(C)C` returned a half-inhibitory concentration (IC50) against Coagulation factor VII of 3.2 µM.

Regarding `CNc1ccc(-c2ccc(C(=O)NCC(C)C)cc2C(=O)O)c(C(=O)Nc2cccc(C(N)=O)c2)c1`, the half-maximal inhibitory concentration (IC50) is over 200 µM on Coagulation factor X, 4.8 µM against Trypsin, 0.69 µM against Coagulation factor VII and over 200 µM against Prothrombin. For the same molecule, the Activity in the data set on Plasma [1] was over 300 µM; in the data set on Plasma [2], 150 µM.

Consider `CNc1ccc(-c2ccc(C(=O)N[C@@H](CC(C)C)C(=O)O)cc2C(=O)O)c(C(=O)Nc2cccc(C(N)=O)c2)c1`, for which the IC50 is over 200 µM against Coagulation factor X, over 200 µM against Trypsin, 0.15 µM against Coagulation factor VII and over 200 µM at Prothrombin. Also, the Activity is over 300 µM in the data set on Plasma [1] and 33 µM in the data set on Plasma [2].

The molecule `CC(C)C[C@@H](CO)NC(=O)c1ccc(-c2ccccc2C(=O)Nc2cccc(C(N)=O)c2)c(C(=O)O)c1` showed an IC50 against Coagulation factor VII of 8.5 µM.

The molecule `CNc1ccc(-c2ccc(C(=O)N[C@@H](CC(C)C)C(N)=O)cc2C(=O)O)c(C(=O)Nc2cccc(C(N)=O)c2)c1` came in with a concentration at 0.5 h in data set [3] of 280 ng/mL. In addition, the concentration for half-maximal inhibition (IC50) against Coagulation factor X was over 200 µM; against Trypsin, over 200 µM; at Coagulation factor VII it was 0.18 µM; on Prothrombin, over 200 µM. Also, the Activity in the data set on Plasma [1] is over 300 µM; with Plasma [2], 20 µM. Besides, in data set [4], the concentration at 2 h was 210 ng/mL.

`CC(C)CCNC(=O)c1ccc(-c2ccccc2C(=O)Nc2cccc(C(N)=O)c2)c(C(=O)O)c1` displayed an IC50 against Coagulation factor VII of 19 µM.

In the case of `CNc1ccc(-c2ccc(C(=O)N[C@@H](CC(C)C)C(N)=O)cc2C(=O)O)c(C(=O)Nc2ccc(CN)cc2)c1`, the IC50 on Coagulation factor X is over 200 µM; on Trypsin it was over 200 µM; at Coagulation factor VII, 0.59 µM; at Prothrombin, over 200 µM. The Activity with Plasma [1] was over 300 µM; in the data set on Cynomolgus monkey [5] it was 3.7 min; with Plasma [2], 47 µM; with Cynomolgus monkey [7], 2.7 min; with Cynomolgus monkey [12], 3.5 min. Further, the APTT was 29.1 s in the data set with Cynomolgus monkey [6], 35 s with Cynomolgus monkey [8] and 32.2 s with Cynomolgus monkey [10]. The PT with Cynomolgus monkey [9] was determined as 38.4 s; in the data set on Cynomolgus monkey [13], 24.5 s; in the data set on Cynomolgus monkey [14], 15.1 s. The molecule further had a concentration at 4 h in data set [11] of 130 ng/mL. For the same molecule, the concentration at 0.5 h in [15] stood at 1800 ng/mL.

`CNC(=O)[C@H](CC(C)C)NC(=O)c1ccc(-c2ccccc2C(=O)Nc2cccc(C(N)=O)c2)c(C(=O)O)c1`: on Coagulation factor VII, the IC50 was 4.2 µM.

Take `CC(C)CNC(=O)c1ccc(-c2ccccc2C(=O)Nc2ccc(C(=N)N)cc2)c(C(=O)O)c1`: the IC50 against Coagulation factor X was 0.88 µM; at Trypsin it was 4.8 µM; against Coagulation factor VII, 0.089 µM; against Prothrombin, over 200 µM. The figures for the Activity with Plasma [1] and with Plasma [2] were 4.3 µM and 4.2 µM, respectively. Moreover, the concentration at 2 h in [16] was 160 ng/mL. The molecule further showed a concentration at 0.5 h in [15] of 300 ng/mL.

The molecule `CC(C)C[C@H](NC(=O)c1ccc(-c2ccc(NC(C)C)cc2C(=O)Nc2cccc(C(N)=O)c2)c(C(=O)O)c1)C(N)=O` came in with an IC50 against Coagulation factor VII of 0.86 µM.

On Coagulation factor VII, `CCNc1ccc(-c2ccc(C(=O)N[C@@H](CC(C)C)C(N)=O)cc2C(=O)O)c(C(=O)Nc2cccc(C(N)=O)c2)c1` registered a concentration for half-maximal inhibition (IC50) of 0.3 µM.

At Coagulation factor VII, `CNc1ccc(-c2ccc(C(=O)N[C@H](CO)CC(C)C)cc2C(=O)O)c(C(=O)Nc2cccc(C(N)=O)c2)c1` gave an IC50 of 0.3 µM.

In turn, `CC(C)C[C@H](NC(=O)c1ccc(-c2ccccc2C(=O)Nc2cccc(C(N)=O)c2)c(C(=O)O)c1)C(=O)O` gave an IC50 against Coagulation factor VII of 2.4 µM.

Regarding `CNc1ccc(-c2ccc(C(=O)N[C@H](CO)CC(C)C)cc2C(=O)O)c(C(=O)Nc2ccc(CN)cc2)c1`, 1.3 µM corresponded to half-maximal inhibition against Coagulation factor VII (IC50).

Take `CCCCNc1ccc(-c2ccc(C(=O)N[C@@H](CC(C)C)C(N)=O)cc2C(=O)O)c(C(=O)Nc2cccc(C(N)=O)c2)c1`: the IC50 against Coagulation factor VII was 2.2 µM.
